The subject of one assay is RKN cells. Put plainly: RKN cell profiling assay (cell viability, CellTiter-Glo). Format: cell-based. The following applies: 96 h, 96 h exposure, read-out: Cell Killing EC50. In short, it runs like this: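 Viability read by CellTiter-Glo luminescence after 96 h compound exposure (0.5% DMSO final) of cells plated at 1,000/well in 10% FBS F-12 and allowed 24 h attachment. Four-parameter fits gave EC50; rescue arms used ferrostatin-1, 1.5 μM, present from seeding.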

In the next assay the target is human recombinant GCL (Homo sapiens (Human), UniProt P48506). The assay can be described thus: GCL enzyme profiling assay (ADP-Glo luminescence). The format is biochemical. Particulars: human recombinant GCL 5 nM, 1 h preincubation with ATP; read-out: GCL IC50. As to the method:
The GCL enzyme assay was run in 50 mM HEPES, pH 7.5, containing 150 mM NaCl, 30 mM MgCl2, 0.5 mM EDTA, 1 mM DTT, 0.1 mg/mL BSA, and 0.02% or in the present case 0.2% F-127 in a total assay volume of 10 μL or 10 mL. Compound in pure DMSO was stamped in assay plates (Greiner black 384-well) or appropriate containers using a D300e digital dispenser (TECAN) and the final DMSO concentration was normalized to 1%. A 5 mL, or in the present case, 5 μL mixture of human recombinant GCL (final concentration: 5 nM) and ATP (final concentration: 0.6 mM) was added and the solution was incubated at room temperature (22° C.) for 1 h. The GCL enzyme reaction was initiated by addition of a 5 μL mixture of mono g-glutamate or in the present example, monosodium glutamate (final concentration: 1 mM) and a-aminobutyrate or α-aminobutyrate (final concentration: 1.2 mM). The reaction was stopped after 1 h or in the present case, 2 h by addition of 5 mL, or in the present case, 5 μL ADP GLO Reagent (Promega). The resulting solution was incubated for 2 h at room temperature. This was then followed by addition of 5 mL, or in the present case, 5 μL ADP GLO Detection. After incubation at room temperature for 30 min, the plates were read on a plate reader (PheraStar) using a luminescence protocol to quantify the GCL enzyme activity from each reaction solution. The data was analyzed using a four-parameter logistic equation to calculate IC50.

Bounds are passed on as bounds.

What is called EC50 is the concentration needed to bring the measured effect to its halfway point. One may read the IC50 as the concentration needed to halve the response being measured.

human recombinant GCL, sequence (P48506 whole entry): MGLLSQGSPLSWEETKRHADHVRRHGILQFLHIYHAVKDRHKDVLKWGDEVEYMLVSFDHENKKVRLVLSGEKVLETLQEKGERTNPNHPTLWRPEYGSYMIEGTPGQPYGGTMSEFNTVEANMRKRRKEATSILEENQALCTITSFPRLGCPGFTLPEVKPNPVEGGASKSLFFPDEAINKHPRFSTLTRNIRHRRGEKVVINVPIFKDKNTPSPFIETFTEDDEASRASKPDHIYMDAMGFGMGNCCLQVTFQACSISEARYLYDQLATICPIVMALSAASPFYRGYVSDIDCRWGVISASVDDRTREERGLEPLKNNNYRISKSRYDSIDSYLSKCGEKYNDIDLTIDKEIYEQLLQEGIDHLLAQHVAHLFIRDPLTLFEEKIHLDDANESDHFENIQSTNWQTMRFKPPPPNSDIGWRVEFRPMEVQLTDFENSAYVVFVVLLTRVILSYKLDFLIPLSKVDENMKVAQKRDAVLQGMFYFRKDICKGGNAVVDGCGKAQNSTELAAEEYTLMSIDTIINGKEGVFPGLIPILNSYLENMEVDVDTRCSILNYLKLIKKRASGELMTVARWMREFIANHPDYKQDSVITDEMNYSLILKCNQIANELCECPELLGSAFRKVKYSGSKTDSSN

As to `Cc1ccc(-c2nn[nH]n2)cc1CCS(=N)(=O)CC[C@H](N)C(=O)O` (stereo partly shown) [Compound 45], in the assay on RKN cells, the EC50 is no less than 1 mM. Besides, the IC50 on human recombinant GCL is no more than 0.02 mM.
As for `N=S(=O)(CC[C@H](N)C(=O)O)C[C@H](O)c1ccccc1` (stereo partly shown) [Compound 46], in the assay on RKN cells, the EC50 was no less than 1 mM. For the same compound, the IC50 on human recombinant GCL is 0.02 to 2 mM.
Regarding `CCC(CS(=N)(=O)CC[C@H](N)C(=O)O)c1ccccc1C(F)(F)F` (stereo partly shown) [Compound 47], the EC50 with RKN cells was no less than 1 mM. Also, the IC50 on human recombinant GCL was greater than 2 mM.
For `N=S(=O)(CCc1cccs1)CC[C@H](N)C(=O)O` (stereo partly shown) [Compound 48], in that order: no less than 1 mM and no more than 0.02 mM.
Consider `CC(C)(CCS(=N)(=O)CC[C@H](N)C(=O)O)c1ccccc1` (stereo partly drawn) [Compound 49, (2S)-2-amino-4-(3-methyl-3-phenylbutylsulfonimidoyl)butanoic acid], for which the EC50 with RKN cells is no less than 1 mM. In addition, the IC50 at human recombinant GCL is 0.02 to 2 mM.
For `N=S(=O)(CCCc1ccccc1)CC[C@H](N)C(=O)O` (stereo partly shown) [Compound 51], the EC50 with RKN cells is no less than 1 mM. Moreover, on human recombinant GCL, the IC50 is 0.02 to 2 mM.
On to `N=S(=O)(CCCCc1ccccc1)CC[C@H](N)C(=O)O` (stereo partly shown) [Compound 52], for which the EC50 in the assay with RKN cells is no less than 1 mM. For the same compound, on human recombinant GCL, the concentration for half-maximal inhibition (IC50) was 0.02 to 2 mM.
With `N=S(=O)(CCC(c1ccccc1)C(F)(F)F)CC[C@H](N)C(=O)O` (stereo partly shown) [Compound 53], the EC50 with RKN cells was less than 1 mM. Besides, at human recombinant GCL, the IC50 is 0.02 to 2 mM.
On to `N=S(=O)(CC[C@H](N)C(=O)O)CC[C@H](O)c1ccccc1` (stereo partly shown) [Compound 54], for which the EC50 in the assay with RKN cells is no less than 1 mM. On human recombinant GCL, the 50% inhibitory concentration (IC50) was 0.02 to 2 mM.
With `N=S(=O)(CCC(c1ccccc1)c1ccccc1)CC[C@H](N)C(=O)O` (stereo partly shown) [Compound 55], the EC50 with RKN cells is no less than 1 mM. On human recombinant GCL, the IC50 was in the range of 0.02 to 2 mM.
Take `Cc1ccc(C(C)(C)CCS(=N)(=O)CC[C@H](N)C(=O)O)cc1` (stereo partly shown) [Compound 56]: the EC50 with RKN cells is no less than 1 mM. In addition, the IC50 at human recombinant GCL fell in the range of 0.02 to 2 mM.
In the case of `Cc1cccc(C(C)(C)CCS(=N)(=O)CC[C@H](N)C(=O)O)c1` (stereo partly shown) [Compound 57], the EC50 with RKN cells is no less than 1 mM. Further, at human recombinant GCL, the half-inhibitory concentration (IC50) was 0.02 to 2 mM.
With `CC(C)(CCS(=N)(=O)CC[C@H](N)C(=O)O)c1ccc(F)cc1` (stereo partly shown) [Compound 58], the EC50 in the assay with RKN cells is no less than 1 mM. Also, at human recombinant GCL, the IC50 was 0.02 to 2 mM.
For `CC(C)(CCS(=N)(=O)CC[C@H](N)C(=O)O)c1ccccc1F` (stereo partly shown) [Compound 59], in the assay with RKN cells, the EC50 is less than 1 mM. The IC50 on human recombinant GCL is no more than 0.02 mM.
Take `N=[S@](=O)(CC[C@H](c1ccccc1)C(F)(F)F)CC[C@H](N)C(=O)O` [Compound 60]: the EC50 in the assay on RKN cells is less than 1 mM. Moreover, the IC50 at human recombinant GCL was no more than 0.02 mM.
In the case of `N=[S@@](=O)(CC[C@H](N)C(=O)O)CC[C@@H](c1ccccc1)C(F)(F)F` [Compound 61], the EC50 in the assay on RKN cells was less than 1 mM. The IC50 on human recombinant GCL was no more than 0.02 mM.
For `N=S(=O)(CC[C@H](N)C(=O)O)CCC1(c2ccccc2)CCC1` (stereo partly shown) [Compound 62], the EC50 with RKN cells is less than 1 mM. For the same compound, the IC50 at human recombinant GCL is no more than 0.02 mM.
On to `CC(C)(CCS(=N)(=O)CC[C@H](N)C(=O)O)c1cnoc1` (stereo partly shown) [Compound 63], for which, in the assay on RKN cells, the EC50 is no less than 1 mM. For the same compound, the IC50 on human recombinant GCL was 0.02 to 2 mM.
For `N=S(=O)(CCC(c1c[nH]c2ccccc12)C(F)(F)F)CC[C@H](N)C(=O)O` (stereo partly shown) [Compound 64], in the assay on RKN cells, the EC50 was less than 1 mM. The IC50 on human recombinant GCL was no more than 0.02 mM.
On to `CC(C)(CCS(=N)(=O)CC[C@H](N)C(=O)O)Cc1ccccc1` (stereo partly shown) [Compound 65], for which, in the assay on RKN cells, the EC50 was no less than 1 mM. The IC50 on human recombinant GCL is no more than 0.02 mM.
With `CC(C)(CCS(=N)(=O)CC[C@H](N)C(=O)O)c1ccccc1Cl` (stereo partly shown) [Compound 66], in the assay on RKN cells, the EC50 was no less than 1 mM. The IC50 at human recombinant GCL is 0.02 to 2 mM.
For `COC(=O)[C@@H](N)CCS(=N)(=O)CCc1cnccn1` (stereo partly drawn) [Compound 67, (2S)-methyl 2-amino-4-(2-(pyrazin-2-yl)ethylsulfonimidoyl)butanoate], the EC50 in the assay with RKN cells was no less than 1 mM. Also, the IC50 on human recombinant GCL was greater than 2 mM.
In the case of `COC(=O)[C@@H](N)CCS(=N)(=O)CCc1ccccc1` (stereo partly drawn) [Compound 68, (2S)-methyl 2-amino-4-(2-phenylethylsulfonimidoyl)butanoate], the EC50 with RKN cells is no less than 1 mM. Also, on human recombinant GCL, the IC50 is 0.02 to 2 mM.
